Experimental data reported in patent US20260027116A1, “Methods of Treating Chronic Graft-Versus-Host Disease Following Allogeneic Hematopoietic Stem Cell Transplantation” (Kadmon Corporation, LLC, priority 2022, published 2026).

Legend:
[1] = test system: patients with cGVHD; assay: Example 2: safety, adverse events, relative dose intensity; format: in vivo; details: for ALT increased / AST increased / Bilirubin conjugated increased / Blood alkaline phosphatase increased / GGT increased / Hypoalbuminemia / LFT increased / Transaminases increased: Liver-related AE
Method: All responses were assessed by the study site investigators.

[2] = target: CYP2D6 (Homo sapiens, UniProt P10635); assay: enzyme inhibition in vitro; format: in vitro ADME
Sequence of CYP2D6 (P10635 whole entry): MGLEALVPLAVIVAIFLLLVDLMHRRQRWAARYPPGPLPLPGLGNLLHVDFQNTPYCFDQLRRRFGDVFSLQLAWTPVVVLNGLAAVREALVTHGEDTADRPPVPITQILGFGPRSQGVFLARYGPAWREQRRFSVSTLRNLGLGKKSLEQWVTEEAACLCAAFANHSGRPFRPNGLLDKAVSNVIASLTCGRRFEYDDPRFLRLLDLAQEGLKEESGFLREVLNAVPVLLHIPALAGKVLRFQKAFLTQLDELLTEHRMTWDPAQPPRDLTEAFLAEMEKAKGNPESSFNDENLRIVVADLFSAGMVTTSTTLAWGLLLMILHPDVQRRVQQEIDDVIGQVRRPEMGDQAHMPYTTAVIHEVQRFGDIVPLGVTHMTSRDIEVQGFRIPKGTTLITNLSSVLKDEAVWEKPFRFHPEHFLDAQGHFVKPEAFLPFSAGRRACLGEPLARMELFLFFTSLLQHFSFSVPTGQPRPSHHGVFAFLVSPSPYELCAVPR

[3] = test system: cGVHD symptoms; assay: Example 1: symptom activity by cGVHD Activity Assessment participant self-report; format: in vivo, human
Description: Number of Participants With Maximal Improvement From Baseline in Symptom Activity by cGVHD Activity Assessment Participant Self-Report. cGVHD symptom severity was self-reported by participants. Participants were asked to rate their disease symptom severity over the last week on the following questions: skin itching at its worst, moth dryness at its worst, mouth pain at its worst, mouth sensitivity at its worst, main compliant on eyes, symptom severity on eyes. The severity rating was done on a 0 to 10-point numeric rating scare, where score 0 indicated ‘not at all severe cGVHD symptoms’ and score 10 indicated ‘most severe cGVHD symptoms possible’. EOT visit was performed within 3 days after the participant's last dose of study drug. Baseline value was defined as valid and last non-missing value obtained within 28 days prior to participant receiving first study medication. […] Analysis was performed on mITT population.

Question: Which results are given for `CC(C)NC(=O)COc1cccc(-c2nc(Nc3ccc4[nH]ncc4c3)c3ccccc3n2)c1` [Belumosudil, 2-{3-[4-(1H-indazol-5-ylamino)-2-quinazolinyl]phenoxy}-N-(propan-2-yl) acetamide]?
Answer: Hyperglycemia ([1]; Grade ≥ 3, Total (N = 132)): 6 (5) n (%); Hypertension ([1]; Grade ≥ 3, Total (N = 132)): 8 (6) n (%); Pneumonia ([1]; Grade ≥ 3, Total (N = 132)): 10 (8) n (%); ALT increased ([1]; 200 mg daily (n = 66)): 4 (6) n (%); AST increased ([1]; 200 mg daily (n = 66)): 5 (8) n (%); Bilirubin conjugated increased ([1]; 200 mg daily (n = 66)): 1 (2) n (%); Blood alkaline phosphatase increased ([1]; 200 mg daily (n = 66)): 4 (6) n (%); GGT increased ([1]; 200 mg daily (n = 66)): 6 (9) n (%); Hypoalbuminemia ([1]; 200 mg daily (n = 66)): 2 (3) n (%); LFT increased ([1]; 200 mg daily (n = 66)): 1 (2) n (%); Transaminases increased ([1]; 200 mg daily (n = 66)): 1 (2) n (%); ALT increased ([1]; 200 mg twice daily (n = 66)): 7 (11) n (%); AST increased ([1]; 200 mg twice daily (n = 66)): 8 (12) n (%); Bilirubin conjugated increased ([1]; 200 mg twice daily (n = 66)): 0 n (%); Blood alkaline phosphatase increased ([1]; 200 mg twice daily (n = 66)): 6 (9) n (%); GGT increased ([1]; 200 mg twice daily (n = 66)): 10 (15) n (%); Hypoalbuminemia ([1]; 200 mg twice daily (n = 66)): 2 (3) n (%); LFT increased ([1]; 200 mg twice daily (n = 66)): 0 n (%); Transaminases increased ([1]; 200 mg twice daily (n = 66)): 1 (2) n (%); ALT increased ([1]; Total (N = 132)): 11 (8) n (%); AST increased ([1]; Total (N = 132)): 13 (10) n (%); Bilirubin conjugated increased ([1]; Total (N = 132)): 1 (1) n (%); Blood alkaline phosphatase increased ([1]; Total (N = 132)): 10 (8) n (%); GGT increased ([1]; Total (N = 132)): 16 (12) n (%); Hypoalbuminemia ([1]; Total (N = 132)): 4 (3) n (%); LFT increased ([1]; Total (N = 132)): 1 (1) n (%); Transaminases increased ([1]; Total (N = 132)): 2 (2) n (%); Any AE ([1]; Total (N = 132)): 131 (99) n (%); Drug-related AEs ([1]; Total (N = 132)): 89 (67) n (%); Drug-related SAEs ([1]; Total (N = 132)): 7 (5) n (%); Grade ≥ 3 AEs ([1]; Total (N = 132)): 71 (54) n (%); Liver-related AEs ([1]; Total (N = 132)): 31 (24) n (%); SAEs ([1]; Total (N = 132)): 50 (38) n (%); Deaths ([1]; Total (N = 132), six died during LTFU (>28 days after last dose)): 14 (11) n (%); inhibition of CYP2D6 [2]: inhibitor; self-reported symptom activity maximal improvement 0, participants (%) ([3]; Cohort 1 200 mg QD): 1 (6%) participants; self-reported symptom activity maximal improvement 1, participants (%) ([3]; Cohort 1 200 mg QD): 0 (0%) participants; self-reported symptom activity maximal improvement 2, participants (%) ([3]; Cohort 1 200 mg QD): 0 (0%) participants; self-reported symptom activity maximal improvement 4, participants (%) ([3]; Cohort 1 200 mg QD): 1 (6%) participants; self-reported symptom activity maximal improvement from baseline −8, participants (%) ([3]; Cohort 1 200 mg QD): 0 (0%) participants; self-reported symptom activity maximal improvement −1, participants (%) ([3]; Cohort 1 200 mg QD): 2 (12%) participants; self-reported symptom activity maximal improvement −2, participants (%) ([3]; Cohort 1 200 mg QD): 2 (12%) participants; self-reported symptom activity maximal improvement −3, participants (%) ([3]; Cohort 1 200 mg QD): 2 (12%) participants; self-reported symptom activity maximal improvement −4, participants (%) ([3]; Cohort 1 200 mg QD): 2 (12%) participants; self-reported symptom activity maximal improvement −5, participants (%) ([3]; Cohort 1 200 mg QD): 2 (12%) participants; self-reported symptom activity maximal improvement −6, participants (%) ([3]; Cohort 1 200 mg QD): 0 (0%) participants; self-reported symptom activity maximal improvement −7, participants (%) ([3]; Cohort 1 200 mg QD): 3 (18%) participants; self-reported symptom activity maximal improvement 0, participants (%) ([3]; Cohort 2 200 mg BID): 1 (6%) participants; self-reported symptom activity maximal improvement 1, participants (%) ([3]; Cohort 2 200 mg BID): 0 (0%) participants; self-reported symptom activity maximal improvement 2, participants (%) ([3]; Cohort 2 200 mg BID): 1 (6%) participants; self-reported symptom activity maximal improvement 4, participants (%) ([3]; Cohort 2 200 mg BID): 0 (0%) participants; self-reported symptom activity maximal improvement from baseline −8, participants (%) ([3]; Cohort 2 200 mg BID): 0 (0%) participants; self-reported symptom activity maximal improvement −1, participants (%) ([3]; Cohort 2 200 mg BID): 2 (13%) participants; self-reported symptom activity maximal improvement −2, participants (%) ([3]; Cohort 2 200 mg BID): 3 (19%) participants; self-reported symptom activity maximal improvement −3, participants (%) ([3]; Cohort 2 200 mg BID): 2 (13%) participants; self-reported symptom activity maximal improvement −4, participants (%) ([3]; Cohort 2 200 mg BID): 2 (13%) participants; self-reported symptom activity maximal improvement −5, participants (%) ([3]; Cohort 2 200 mg BID): 0 (0%) participants; self-reported symptom activity maximal improvement −6, participants (%) ([3]; Cohort 2 200 mg BID): 1 (6%) participants; self-reported symptom activity maximal improvement −7, participants (%) ([3]; Cohort 2 200 mg BID): 2 (13%) participants; self-reported symptom activity maximal improvement 0, participants (%) ([3]; Cohort 3 400 mg QD): 0 (0%) participants; self-reported symptom activity maximal improvement 1, participants (%) ([3]; Cohort 3 400 mg QD): 1 (5%) participants; self-reported symptom activity maximal improvement 2, participants (%) ([3]; Cohort 3 400 mg QD): 2 (10%) participants; self-reported symptom activity maximal improvement 4, participants (%) ([3]; Cohort 3 400 mg QD): 0 (0%) participants; self-reported symptom activity maximal improvement from baseline −8, participants (%) ([3]; Cohort 3 400 mg QD): 1 (5%) participants; self-reported symptom activity maximal improvement −1, participants (%) ([3]; Cohort 3 400 mg QD): 2 (10%) participants; self-reported symptom activity maximal improvement −2, participants (%) ([3]; Cohort 3 400 mg QD): 2 (10%) participants; self-reported symptom activity maximal improvement −3, participants (%) ([3]; Cohort 3 400 mg QD): 2 (10%) participants; self-reported symptom activity maximal improvement −4, participants (%) ([3]; Cohort 3 400 mg QD): 1 (5%) participants; self-reported symptom activity maximal improvement −5, participants (%) ([3]; Cohort 3 400 mg QD): 2 (10%) participants; self-reported symptom activity maximal improvement −6, participants (%) ([3]; Cohort 3 400 mg QD): 4 (19%) participants; self-reported symptom activity maximal improvement −7, participants (%) ([3]; Cohort 3 400 mg QD): 0 (0%) participants
